Entries after “also recorded” stand apart in the source; their conditions may differ.
Legend:
[1] = test system: Raji (Burkitt's) lymphoma cells; assay: MTT assay for 4-day viability of Raji (Burkitt's) lymphoma cells; type: cell-based; details: Homo sapiens, 96 h, Raji cells (highly express MCT1), read-out: approximate potency (EC50)
Source text: Specific Examples 1-52 of compounds of the invention, with estimated EC50 values determined using an MTT assay for 4-day viability of Raji (Burkitt's) lymphoma cells, a cell line known to highly express MCT1 and to be sensitive to small molecule MCT inhibitors,^4 are shown in Table 2. Assay protocols follow those described in the literature.^4 Other assays that are not described here but that are standard in the field, such as an assay for competitive inhibition of transport of radiolabeled lactic acid, an MCT substrate, may also be useful in establishing mechanism of action of these compounds.

[2] = test system: Raji Burkitt's lymphoma cells; assay: Mouse xenograft study, tumor volume and tumor weight; type: in vivo; details: Raji xenograft in mice, 30 mg/kg daily; for final tumor mass: tumor mass measured at day 29, relative to vehicle; for tumor growth over time (tumor volume): ~20 days of treatment, relative to vehicle
Description: (§1) Protocols follow those described in the literature.^4 Mice were transplanted with cultured tumor cells and, after an incubation period (typically 10 days), mice were left untreated or were treated daily with a 30 mg/kg dose of the test compound. Tumor volumes were measured with calipers over ˜20 days of treatment. Tumors were excised and weighed at the end of treatment. In two experiments using Raji Burkitt's lymphoma cells^4, the compounds studied were the product of example 9 (FIG. 3), code named SR-11105, and the product of example 21 (FIG. 4), code named SR-13779.

[3] = Mouse xenograft study, animal body weight; type: in vivo; details: Raji xenograft mice, 30 mg/kg daily, over the course of the study
Description: as §1

EC50 [1] [nM] | Structure (SMILES) | further results
≤ 20 | Cc1n[nH]c(C)c1Cc1sc2c(c1-c1ccc(F)c(CO)c1F)c(=O)n(C1CC1)c(=O)n2CC(C)C [Example 21, 3-cyclopropyl-5-(2,4-difluoro-3-(hydroxymethyl)phenyl)-6-((3,5-dimethyl-1H-pyrazol-4-yl)methyl)-1-isobutylthieno[2,3-d]pyrimidine-2,4(1H,3H)-dione] | final tumor mass ([2]; listed as SR-13779): significant reduction in final tumor mass; also recorded: more pronounced effect; tumor growth over time (tumor volume) [2]: effectively blocked tumor growth; animal body weight [3]: maintained their body weight
≤ 20 | Cc1n[nH]c(C)c1Cc1sc2c(c1-c1ccnc(CO)c1)c(=O)n(C1CC1)c(=O)n2CC(C)C [Example 23, 3-cyclopropyl-6-((3,5-dimethyl-1H-pyrazol-4-yl)methyl)-5-(2-(hydroxymethyl)pyridin-4-yl)-1-isobutylthieno[2,3-d]pyrimidine-2,4(1H,3H)-dione] | 
1000 to 10000 | CC(C)Cc1nn(C)c(=O)c2c(-c3cccc(CO)c3)n(Cc3cc(NCCCCCN)nc4ccccc34)cc12 [Example 49, 6-((2-((5-aminopentyl)amino)quinolin-4-yl)methyl)-7-(3-(hydroxymethyl)phenyl)-4-isobutyl-2-methyl-2,6-dihydro-1H-pyrrolo[3,4-d]pyridazin-1-one] | 
≤ 20 | CC(C)Cc1nn(C)c(=O)c2c(-c3csc(C(O)C(F)(F)F)c3)n(Cc3cccc4ccccc34)cc12 (stereo not drawn) [Example 38, 4-isobutyl-2-methyl-6-(naphthalen-1-ylmethyl)-7-(5-(2,2,2-trifluoro-1-hydroxyethyl)thiophen-3-yl)-2,6-dihydro-1H-pyrrolo[3,4-d]pyridazin-1-one] | 
300 | CC(C)Cc1nn(C)c(=O)c2c(-c3ncc(CO)s3)n(Cc3cccc4ccccc34)cc12 [Example 25, 7-(5-(hydroxymethyl)thiazol-2-yl)-4-isobutyl-2-methyl-6-(naphthalen-1-ylmethyl)-2,6-dihydro-1H-pyrrolo[3,4-d]pyridazin-1-one] | 

More lines, now with the values behind:

Structure (SMILES) | EC50 [1] [nM] | further results
Cc1n[nH]c(C)c1Cc1sc2c(c1-c1ccc(F)c(CO)c1)c(=O)n(C)c(=O)n2CC(C)C [Example 9, 6-((3,5-dimethyl-1H-pyrazol-4-yl)methyl)-5-(4-fluoro-3-(hydroxymethyl)phenyl)-1-isobutyl-3-methylthieno[2,3-d]pyrimidine-2,4(1H,3H)-dione] | ≤ 20 | final tumor mass [2]: significant reduction in final tumor mass; tumor growth over time (tumor volume) [2]: significant reduction of tumor growth rate; animal body weight [3]: maintained their body weight
Cc1n[nH]c(C)c1Cc1sc2c(c1-c1cc(CO)c(F)cc1F)c(=O)n(C1CC1)c(=O)n2CC(C)C [Example 19, 3-cyclopropyl-5-(2,4-difluoro-5-(hydroxymethyl)phenyl)-6-((3,5-dimethyl-1H-pyrazol-4-yl)methyl)-1-isobutylthieno[2,3-d]pyrimidine-2,4(1H,3H)-dione] | 70 | 
Cc1n[nH]c(C)c1Cc1sc2c(c1-c1cccc(C(C)O)c1)c(=O)n(C)c(=O)n2CC(C)C (stereo not drawn) [Example 13, 6-((3,5-dimethyl-1H-pyrazol-4-yl)methyl)-5-(3-(1-hydroxyethyl)phenyl)-1-isobutyl-3-methylthieno[2,3-d]pyrimidine-2,4(1H,3H)-dione] | 50 | 
Cc1n[nH]c(C)c1Cc1sc2c(c1-c1cccc(CO)c1F)c(=O)n(C1CC1)c(=O)n2CC(C)C [Example 20, 3-cyclopropyl-6-((3,5-dimethyl-1H-pyrazol-4-yl)methyl)-5-(2-fluoro-3-(hydroxymethyl)phenyl)-1-isobutylthieno[2,3-d]pyrimidine-2,4(1H,3H)-dione] | ≤ 20 | 
